Measurements from patent US11130750B2, “Calcium channel inhibitors” (Cavion, Inc., priority 2017, dated 2021).

Columns and labels:
Type in all cases: cell-based
[1] = test system: Human Glioma cancer cell line U251; test: Cell Proliferation Assay by CCK-8 Reagent; settings: Homo sapiens, U-251, 72 h, U251 cells, 72 hours incubation, CCK-8, % viability vs vehicle control
Method: Human Glioma cancer cell line U251 was maintained in DMEM (Gibco, Cat #10569-10) supplemented with 10% fetal bovine serum inactivated at 56° C. (Gibco, Cat #10082-147), 100 U/mL penicillin, and 100 μg/mL streptomycin (Gibco, Cat #15140-122) at 37° C. and 1% MEM non-essential amino acid (Sigma, Cat #M7145) in a humid atmosphere containing 5% CO2. The cells were seeded at 2.5×10^3 cells/well in a 96 well plate (BD falcon, Cat #353072) with 200 pt volume/well and kept in 37° C./5% CO2 incubator for 0/N incubation. The seeding density was optimized previously based on growth curve. On the next day, plated cells were incubated with each test compounds at eight different concentrations (100, 50, 25, 12.5, 6.25, 3.125, 1.5 and 0.78) in triplicates. DMSO was used as a Vehicle control and Culture medium was used as blank control for the assay in each plate. The percentage of DMSO was kept uniform across the plate as <1%. The compound treated cells were incubated in 37° C./5% CO2 incubator for 72 hours. After incubation period, […] CCK-8 reagent (Dojindo, Cat #CK04) was added in all the wells and plate was kept in 37° C./5% CO2 incubator for 3 hours. After CCK-8 incubation, absorbance was measured @ 450 nm using Spectrophotometer (BMG, Omega Polar Star). % Viability values at each concentration were calculated with respect to Vehicle control and EC50 values were calculated using graph pad prism software and are shown in Table A.

Cav3.1 = Cav3.1 (Homo sapiens (Human), UniProt O43497); test: Whole-cell voltage clamp recording, HEK293 cells expressing T-type channel Cav3.1; settings: holding potential −100 mV, depolarized to −30 mV for 100 ms, room temperature
Method: (§1) Whole-cell voltage clamp recordings were performed on cultured HEK293 cells expressing T-type channels (encoded by Cav3.1, Cav3.2, or Cav3.3 channels). All experiments were performed at room temperature. Whole-cell currents were recorded using a MultiClamp 700B amplifier and analyzed offline with pCLAMP10.4 software (Molecular Devices, LLC, Sunnyvale Calif., USA). […] Test compounds were usually applied via a rapid solution exchange system with 8 fine polyplastic tubings glued in a holder in parallel and located closely to the recorded cells. The current responses were normalized to the control, percent inhibition was calculated and sigmoidal dose-response curettes we're generated using XLFIT (IDBS, Surrey, UK) or Prism (GraphPad Software, LA Jola, Calif., US) to calculate IC50 values and Hill slopes using the following equation Y=Bottom+(Top−Bottom)/1+10{circumflex over (()}(Log EC50−X)−HillsSlope)). IC50 values are given in micromolar units.

Cav3.2 = Cav3.2 (Homo sapiens (Human), UniProt O95180); test: Whole-cell voltage clamp recording, HEK293 cells expressing T-type channel Cav3.2; settings: holding potential −100 mV, depolarized to −30 mV for 100 ms, room temperature
Method: as §1

Cav3.3 = Cav3.3 (Homo sapiens (Human), UniProt Q9P0X4); test: Whole-cell voltage clamp recording, HEK293 cells expressing T-type channel Cav3.3; settings: holding potential −100 mV, depolarized to −30 mV for 100 ms, room temperature
Method: as §1

Sequence of Cav3.3 (Q9P0X4 whole entry, species assumed): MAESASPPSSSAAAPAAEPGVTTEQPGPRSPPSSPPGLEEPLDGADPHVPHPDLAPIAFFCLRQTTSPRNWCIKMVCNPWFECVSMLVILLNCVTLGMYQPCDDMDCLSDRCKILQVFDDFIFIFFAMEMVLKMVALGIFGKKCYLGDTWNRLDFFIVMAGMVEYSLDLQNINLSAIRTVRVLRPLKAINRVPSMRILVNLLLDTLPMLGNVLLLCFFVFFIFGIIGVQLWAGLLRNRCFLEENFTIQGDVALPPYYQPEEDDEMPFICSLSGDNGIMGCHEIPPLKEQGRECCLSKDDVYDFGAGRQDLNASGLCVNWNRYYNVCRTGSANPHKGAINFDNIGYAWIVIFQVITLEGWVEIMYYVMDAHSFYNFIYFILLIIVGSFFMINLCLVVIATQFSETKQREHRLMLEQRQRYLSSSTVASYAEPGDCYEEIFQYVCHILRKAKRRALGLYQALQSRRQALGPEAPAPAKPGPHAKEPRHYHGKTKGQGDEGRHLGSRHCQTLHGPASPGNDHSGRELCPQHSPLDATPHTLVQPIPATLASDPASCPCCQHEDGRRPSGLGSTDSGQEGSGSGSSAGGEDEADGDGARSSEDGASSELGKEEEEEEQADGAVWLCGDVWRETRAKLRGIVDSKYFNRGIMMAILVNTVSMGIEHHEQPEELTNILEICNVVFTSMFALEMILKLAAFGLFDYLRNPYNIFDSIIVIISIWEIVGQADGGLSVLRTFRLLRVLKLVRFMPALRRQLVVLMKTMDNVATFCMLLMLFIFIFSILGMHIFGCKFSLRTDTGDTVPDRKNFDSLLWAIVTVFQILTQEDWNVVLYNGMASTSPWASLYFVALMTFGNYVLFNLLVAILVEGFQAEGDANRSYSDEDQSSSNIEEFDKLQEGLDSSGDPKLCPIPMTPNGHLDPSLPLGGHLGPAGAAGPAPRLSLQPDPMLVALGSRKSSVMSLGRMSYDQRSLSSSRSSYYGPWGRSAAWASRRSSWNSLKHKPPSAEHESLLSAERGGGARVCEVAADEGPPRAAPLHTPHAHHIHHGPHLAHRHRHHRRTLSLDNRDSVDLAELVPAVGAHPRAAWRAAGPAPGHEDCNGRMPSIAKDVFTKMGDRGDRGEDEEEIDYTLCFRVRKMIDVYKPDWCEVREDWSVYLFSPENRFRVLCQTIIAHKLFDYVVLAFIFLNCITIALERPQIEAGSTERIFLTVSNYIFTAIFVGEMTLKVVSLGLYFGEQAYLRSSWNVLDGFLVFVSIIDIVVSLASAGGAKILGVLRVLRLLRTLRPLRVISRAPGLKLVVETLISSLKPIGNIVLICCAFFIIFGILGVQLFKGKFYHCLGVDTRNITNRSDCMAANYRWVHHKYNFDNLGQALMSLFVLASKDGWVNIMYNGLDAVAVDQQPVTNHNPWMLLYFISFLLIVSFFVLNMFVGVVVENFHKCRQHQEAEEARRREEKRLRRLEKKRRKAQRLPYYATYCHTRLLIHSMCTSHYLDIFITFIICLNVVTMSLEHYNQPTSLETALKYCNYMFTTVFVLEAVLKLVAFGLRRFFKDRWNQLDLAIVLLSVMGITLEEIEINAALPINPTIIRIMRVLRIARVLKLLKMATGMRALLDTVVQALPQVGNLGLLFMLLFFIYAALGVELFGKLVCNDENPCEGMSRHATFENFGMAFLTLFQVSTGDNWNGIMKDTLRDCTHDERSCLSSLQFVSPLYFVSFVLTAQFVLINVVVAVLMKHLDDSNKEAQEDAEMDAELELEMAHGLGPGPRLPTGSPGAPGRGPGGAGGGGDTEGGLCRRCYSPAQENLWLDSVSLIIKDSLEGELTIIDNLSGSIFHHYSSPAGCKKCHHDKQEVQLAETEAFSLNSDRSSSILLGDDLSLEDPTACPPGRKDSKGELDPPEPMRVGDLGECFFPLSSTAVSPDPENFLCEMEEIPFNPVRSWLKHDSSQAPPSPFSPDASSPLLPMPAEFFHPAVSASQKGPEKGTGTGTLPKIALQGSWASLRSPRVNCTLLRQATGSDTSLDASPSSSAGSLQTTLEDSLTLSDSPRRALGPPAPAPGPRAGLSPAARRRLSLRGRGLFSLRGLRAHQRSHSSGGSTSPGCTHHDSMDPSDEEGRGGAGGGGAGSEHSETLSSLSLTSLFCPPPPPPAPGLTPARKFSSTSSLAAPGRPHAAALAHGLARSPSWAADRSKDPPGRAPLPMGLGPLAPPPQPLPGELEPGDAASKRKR
Sequence of Cav3.2 (O95180 whole entry): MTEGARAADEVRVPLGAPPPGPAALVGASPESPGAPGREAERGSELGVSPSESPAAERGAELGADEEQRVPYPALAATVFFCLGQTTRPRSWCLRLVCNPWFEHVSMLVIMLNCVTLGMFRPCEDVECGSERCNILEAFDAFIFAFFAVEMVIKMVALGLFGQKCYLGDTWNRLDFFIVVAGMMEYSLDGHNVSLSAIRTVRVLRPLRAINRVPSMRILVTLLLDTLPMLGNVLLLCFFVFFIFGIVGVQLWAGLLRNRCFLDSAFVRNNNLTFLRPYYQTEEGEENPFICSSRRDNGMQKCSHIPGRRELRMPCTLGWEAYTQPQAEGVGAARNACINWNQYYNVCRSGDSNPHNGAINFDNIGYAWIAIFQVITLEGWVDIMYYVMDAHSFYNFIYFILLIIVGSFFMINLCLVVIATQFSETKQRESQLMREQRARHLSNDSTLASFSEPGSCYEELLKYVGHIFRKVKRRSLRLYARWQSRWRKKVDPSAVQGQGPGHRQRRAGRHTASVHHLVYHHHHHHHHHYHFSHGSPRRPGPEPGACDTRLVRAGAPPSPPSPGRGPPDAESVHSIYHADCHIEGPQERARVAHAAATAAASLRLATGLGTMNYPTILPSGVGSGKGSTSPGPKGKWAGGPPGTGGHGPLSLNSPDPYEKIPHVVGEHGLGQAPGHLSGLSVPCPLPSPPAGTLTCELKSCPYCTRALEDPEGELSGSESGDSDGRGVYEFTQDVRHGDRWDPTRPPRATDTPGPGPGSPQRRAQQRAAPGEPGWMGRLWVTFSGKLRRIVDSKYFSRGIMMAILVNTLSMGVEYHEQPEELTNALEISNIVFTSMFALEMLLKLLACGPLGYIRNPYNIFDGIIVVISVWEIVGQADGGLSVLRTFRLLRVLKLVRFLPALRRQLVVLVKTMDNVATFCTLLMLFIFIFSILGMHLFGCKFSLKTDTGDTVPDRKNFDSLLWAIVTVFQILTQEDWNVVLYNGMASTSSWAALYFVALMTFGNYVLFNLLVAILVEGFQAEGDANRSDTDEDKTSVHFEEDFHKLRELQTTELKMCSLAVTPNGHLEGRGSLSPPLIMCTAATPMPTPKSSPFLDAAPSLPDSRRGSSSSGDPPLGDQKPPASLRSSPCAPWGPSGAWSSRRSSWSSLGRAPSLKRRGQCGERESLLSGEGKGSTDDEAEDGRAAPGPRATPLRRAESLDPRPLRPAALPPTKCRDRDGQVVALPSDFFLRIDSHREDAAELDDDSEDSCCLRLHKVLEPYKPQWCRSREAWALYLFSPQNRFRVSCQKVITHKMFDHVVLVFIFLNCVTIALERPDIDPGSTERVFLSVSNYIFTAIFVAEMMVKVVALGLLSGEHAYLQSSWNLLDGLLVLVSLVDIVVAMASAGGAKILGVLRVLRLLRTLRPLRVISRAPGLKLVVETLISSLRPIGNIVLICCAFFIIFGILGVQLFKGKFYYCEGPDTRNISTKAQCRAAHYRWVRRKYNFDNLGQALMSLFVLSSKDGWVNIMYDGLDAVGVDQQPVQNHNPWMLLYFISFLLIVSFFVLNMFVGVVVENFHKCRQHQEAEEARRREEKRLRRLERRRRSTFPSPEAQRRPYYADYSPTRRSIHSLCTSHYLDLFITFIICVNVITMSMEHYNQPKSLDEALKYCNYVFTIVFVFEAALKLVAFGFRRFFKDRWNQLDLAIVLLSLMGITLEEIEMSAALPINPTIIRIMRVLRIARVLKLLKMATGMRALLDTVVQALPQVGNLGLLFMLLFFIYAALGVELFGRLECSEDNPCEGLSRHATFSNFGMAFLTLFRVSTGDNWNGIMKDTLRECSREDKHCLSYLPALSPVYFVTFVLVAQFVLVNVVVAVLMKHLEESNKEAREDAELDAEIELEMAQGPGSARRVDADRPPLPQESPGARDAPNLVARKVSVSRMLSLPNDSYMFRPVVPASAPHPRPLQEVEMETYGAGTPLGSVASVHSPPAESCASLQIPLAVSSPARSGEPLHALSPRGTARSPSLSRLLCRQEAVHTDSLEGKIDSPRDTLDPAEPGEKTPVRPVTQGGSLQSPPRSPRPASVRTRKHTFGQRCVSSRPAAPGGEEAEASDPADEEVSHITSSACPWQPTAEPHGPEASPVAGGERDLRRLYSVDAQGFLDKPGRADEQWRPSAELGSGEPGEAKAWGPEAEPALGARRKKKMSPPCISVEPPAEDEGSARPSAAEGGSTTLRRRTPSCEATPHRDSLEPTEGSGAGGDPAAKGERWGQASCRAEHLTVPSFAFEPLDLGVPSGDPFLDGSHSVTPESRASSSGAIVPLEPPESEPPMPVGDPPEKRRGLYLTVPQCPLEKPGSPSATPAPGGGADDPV

Cc1ccc(C)c2[nH]c(CCCN(C)CC[C@@]3(OC(=O)N4CCOCC4)CCc4cc(F)ccc4[C@@H]3C(C)C)nc12 [Example 15, (1S,2S)-2-(2-((3-(4,7-Dimethyl-1H-benzo[d]imidazol-2-yl)propyl)(methyl)amino)ethyl)-6-fluoro-1-isopropyl-1,2,3,4-tetrahydronaphthalen-2-yl morpholine-4-carboxylate]
EC50 [1]: 4.8 µM
IC50 (Cav3.1): 0.139 µM
IC50 (Cav3.2): 0.335 µM
IC50 (Cav3.3): 0.212 µM
